Laboratory results: article PMC4490784, “Compensatory induction of MYC expression by sustained CDK9 inhibition via a BRD4-dependent mechanism” (eLife, 2015)

Legend:
[1] = tested on: 7SK snRNP in HeLa-based F1C2 cells; experiment: CDK9-F co-immunoprecipitation: disruption of 7SK snRNP, formation of BRD4-P-TEFb; format: cell-based, human
Method: A number of stress-inducing agents/conditions are known to cause the release of P-TEFb from 7SK snRNP, which serves as the principal reservoir of uncommitted P-TEFb activity in the nucleus (reviewed in [Zhou et al., 2012]). […] CDK9-F was stably expressed in the HeLa-based F1C2 cells ([Yang et al., 2001]) that were treated with a wide range of i-CDK9 concentrations for 8 hr.
Just like the induction of MYC expression (Figure 3B), the disruption of 7SK snRNP and formation of BRD4-P-TEFb were highly sensitive to i-CDK9 and required as little as 0.1 μM of the drug (Figure 4A, compare lane 8 to lane 6). […] In a time course analysis, i-CDK9 (0.3 μM)-induced disruption of 7SK snRNP at a time point (1 hr) that was much earlier than that required to cause about 50% reduction in global pSer2 (8 hr; Figure 4—figure supplement 1).
All Co-immunoprecipitation experiments were performed in NEs prepared from F1C2 cells that stably express CDK9-F or the parental HeLa cells transfected with the indicated cDNAs. The procedures have been described previously ([Lu et al., 2014]).

CDK9-CycT1 = CDK9-CycT1 (Homo sapiens, UniProt P50750); experiment: In vitro kinase reaction with baculovirus-produced recombinant kinase (SignalChem); format: biochemical; design: purchased SignalChem; host or cells: baculovirus-produced; details: 80 nM i-CDK9
HeLa cells = experiment: Immunoblotting of MCL-1 and PARP in HeLa cell lysates; format: cell-based, human; details: 8 hr
Method: Figure 1. i-CDK9 is a potent and selective CDK9 inhibitor that elicits cellular responses indicative of P-TEFb inhibition. (A and B) Structures and selectivity profiles of i-CDK9 (A) and falvopiridol (B). […] (C) In vitro kinase reactions containing affinity-purified CDK9-F-CycT or CDK12-F-CycK and GST-CTD as a substrate were conducted in the presence of the indicated concentrations of i-CDK9. pSer2 and the Flag-tagged kinase in each reaction were detected by Western blotting with anti-pSer2 and anti-Flag antibodies, respectively. (D) HeLa cells were treated for 8 hr with DMSO or the indicated concentrations of i-CDK9. Total cell lysates were examined by immunoblotting for the proteins labeled on the left. DOI: http://dx.doi.org/10.7554/eLife.06535.003 Figure 1—source data 1. Selectivity profile of i-CDK9. DOI: http://dx.doi.org/10.7554/eLife.06535.004 Figure 1—figure supplement 1. Recombinant CDK12-CycK is less sensitive to inhibition by i-CDK9.
Inhibition of phosphorylation of both Pol II CTD and SPT5 is expected to block transcriptional elongation, which will effectively decrease the production of labile proteins from short-lived transcripts.

CDK8-CycC = CDK8-CycC (Homo sapiens, UniProt P49336); experiment: AlphaScreen-based kinase assay; format: biochemical
CDK8-CycC, sequence (P49336 whole entry): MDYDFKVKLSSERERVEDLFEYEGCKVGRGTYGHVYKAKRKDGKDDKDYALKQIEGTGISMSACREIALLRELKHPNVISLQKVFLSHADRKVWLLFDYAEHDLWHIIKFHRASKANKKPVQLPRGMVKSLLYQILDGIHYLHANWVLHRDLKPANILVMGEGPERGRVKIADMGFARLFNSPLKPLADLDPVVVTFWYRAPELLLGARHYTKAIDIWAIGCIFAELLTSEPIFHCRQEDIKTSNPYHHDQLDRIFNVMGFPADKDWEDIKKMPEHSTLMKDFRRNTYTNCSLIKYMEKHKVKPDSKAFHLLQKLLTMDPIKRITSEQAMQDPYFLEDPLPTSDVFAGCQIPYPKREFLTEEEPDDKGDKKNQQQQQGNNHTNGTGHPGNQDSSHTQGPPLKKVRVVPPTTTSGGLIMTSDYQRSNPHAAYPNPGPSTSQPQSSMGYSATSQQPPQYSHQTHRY
CDK8-CycC, sequence (P24863 whole entry partner): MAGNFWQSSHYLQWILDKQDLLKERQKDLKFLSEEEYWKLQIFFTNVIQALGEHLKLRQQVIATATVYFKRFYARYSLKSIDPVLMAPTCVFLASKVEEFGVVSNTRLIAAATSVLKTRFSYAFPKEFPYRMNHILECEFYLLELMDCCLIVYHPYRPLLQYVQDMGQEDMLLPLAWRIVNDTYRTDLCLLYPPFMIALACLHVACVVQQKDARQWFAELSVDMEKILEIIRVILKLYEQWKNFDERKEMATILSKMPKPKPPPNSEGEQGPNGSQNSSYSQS

CDK9-CycT1, sequence (P50750 whole entry): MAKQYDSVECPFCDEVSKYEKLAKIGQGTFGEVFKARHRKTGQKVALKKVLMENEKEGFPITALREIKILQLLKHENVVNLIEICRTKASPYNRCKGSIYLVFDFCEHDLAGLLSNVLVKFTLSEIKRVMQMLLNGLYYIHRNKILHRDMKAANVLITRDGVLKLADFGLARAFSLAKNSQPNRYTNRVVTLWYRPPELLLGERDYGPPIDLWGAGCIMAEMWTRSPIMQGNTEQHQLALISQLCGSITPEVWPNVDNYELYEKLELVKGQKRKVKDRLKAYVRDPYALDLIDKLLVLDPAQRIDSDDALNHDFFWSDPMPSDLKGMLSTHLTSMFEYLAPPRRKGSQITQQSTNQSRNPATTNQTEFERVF
CDK9-CycT1, sequence (O60563 whole entry partner): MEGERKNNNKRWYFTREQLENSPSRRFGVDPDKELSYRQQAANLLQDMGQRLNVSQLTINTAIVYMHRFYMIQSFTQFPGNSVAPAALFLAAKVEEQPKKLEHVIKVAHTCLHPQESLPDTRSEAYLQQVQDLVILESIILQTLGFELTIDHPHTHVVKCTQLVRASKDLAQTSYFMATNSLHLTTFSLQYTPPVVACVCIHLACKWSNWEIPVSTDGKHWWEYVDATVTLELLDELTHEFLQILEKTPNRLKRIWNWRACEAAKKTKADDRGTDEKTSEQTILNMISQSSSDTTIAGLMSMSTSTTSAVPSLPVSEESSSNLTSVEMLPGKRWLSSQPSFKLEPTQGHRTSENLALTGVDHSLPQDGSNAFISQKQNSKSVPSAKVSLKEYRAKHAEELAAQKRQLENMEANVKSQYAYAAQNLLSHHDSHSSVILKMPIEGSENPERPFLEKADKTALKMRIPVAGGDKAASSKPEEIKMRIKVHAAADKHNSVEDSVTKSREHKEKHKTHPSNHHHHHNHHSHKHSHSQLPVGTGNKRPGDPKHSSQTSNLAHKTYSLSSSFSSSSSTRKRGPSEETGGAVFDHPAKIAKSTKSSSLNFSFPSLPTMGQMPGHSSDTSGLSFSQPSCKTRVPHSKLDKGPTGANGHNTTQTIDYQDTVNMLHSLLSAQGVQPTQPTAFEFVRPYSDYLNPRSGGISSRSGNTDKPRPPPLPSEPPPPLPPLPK

With N[C@H]1CC[C@H](Nc2cc(-c3cccc(NCc4cccc(F)c4)n3)c(Cl)cn2)CC1 [i-CDK9, N2′-(trans-4-aminocyclohexyl)-5′-chloro-N6-(3-fluorobenzyl)-2,4′-bipyridine-2′,6-diamine] the “time point of disruption of 7SK snRNP” value ([1]; 0.3 μM) was 1 h, the “concentration required for disruption of 7SK snRNP and formation of BRD4-P-TEFb” value ([1]; 8 hr) was 0.1 µM and the “inhibition of Ser2 phosphorylation” value (CDK9-CycT1) was “mostly inhibited”. For the same compound, the “cleavage of PARP” value (HeLa cells) was “induced proteolytic cleavage”, the “expression of MCL-1” value (HeLa cells) was “markedly down-regulated” and the IC50 (CDK8-CycC) was > 1 µM.
